Reference: patent US8124793B2, “Derivatives of ethylene methanedisulfonate as cancer chemotherapeutic agents” (priority 2007, dated 2012)

Assays:
Type in all cases: cell-based
HCT-116 = test: NCI screen, growth of human tumor cells: Colon Cancer HCT-116; conditions: HCT-116 (Colon Cancer), 10^−4 molar
Summary of the method: (§1)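 At least 60 data points describe each compound tested by NCI. Cancer type, molar concentration in the screen and percent growth make up the recorded data.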

KD488 = test: NCI screen, growth of human tumor cells: Lymphoma KD488
RPMI-8226 = test: NCI screen, growth of human tumor cells: Leukemia RPMI-8226; conditions: RPMI-8226 (Leukemia), 10^−4 molar
Summary of the method: as §1

CAKI-1 = test: NCI screen, growth of human tumor cells: Renal Cancer CAKI-1; conditions: CAKI-1 (Renal Cancer), 10^−4 molar
Summary of the method: as §1

MDA-MB-435 = test: NCI screen, growth of human tumor cells: Breast Cancer MDA-MB-435; conditions: MDA-MB-435 (Breast Cancer), 10^−4 molar
Summary of the method: as §1

MDA-MB-231/ATCC = test: NCI screen, growth of human tumor cells: Breast Cancer MDA-MB-231/ATCC; conditions: MDA-MB-231/ATCC (Breast Cancer), 10^−4 molar
Summary of the method: as §1

human cancer cells = test: NCI screen summary over the cancers tested (negative growth of human cancer cells); conditions: 10^−4 M conc.; cancers with negative growth / cancers tested
Protocol: (§2) In the NCI screening process, each compound was tested and described by a minimum of 60 data points. The test data include, but are not limited to the type of cancer, the molar concentration used in the screen, and the percent growth of the cancer. In some cases, NMR and elemental analysis were used for structural assignment.
The derivatives in the tables are grouped using the same category as in the tables 1-6.

PA682 = test: NCI screen, growth of human tumor cells: Lymphoma PA682
NCI-H460 = test: NCI screen, growth of human tumor cells: Non-Small Cell Lung NCI-H460; conditions: NCI-H460 (Non-Small Cell Lung), 10^−4 molar
Summary of the method: as §1

MDA-N = test: NCI screen, growth of human tumor cells: Breast Cancer MDA-N; conditions: 10^−4 molar
Protocol: as §2

CCRF-CEM = test: NCI screen, growth of human tumor cells: Leukemia CCRF-CEM; conditions: CCRF-CEM (Leukemia), 10^−4 molar
Summary of the method: as §1

SN12C = test: NCI screen, growth of human tumor cells: Renal Cancer SN12C; conditions: SN12C (Renal Cancer), 10^−4 molar
Summary of the method: as §1

OVCAR-8 = test: NCI screen, growth of human tumor cells: Ovarian Cancer OVCAR-8; conditions: OVCAR-8 (Ovarian Cancer), 10^−4 molar
Summary of the method: as §1

HOP-18 = test: NCI screen, growth of human tumor cells: Non-Small Cell Lung HOP-18
Summary of the method: as §1

AS283 = test: NCI screen, growth of human tumor cells: Lymphoma AS283
RL = test: NCI screen, growth of human tumor cells: Lymphoma RL
SF-295 = test: NCI screen, growth of human tumor cells: CNS Cancer SF-295; conditions: SF-295 (CNS Cancer), 10^−4 molar
Summary of the method: as §1

U-251 = test: NCI screen, growth of human tumor cells: CNS Cancer U-251; conditions: U-251 (CNS Cancer), 10^−4 molar
Summary of the method: as §1

HOP-62 = test: NCI screen, growth of human tumor cells: Non-Small Cell Lung HOP-62; conditions: HOP-62 (Non-Small Cell Lung), 10^−4 molar
Summary of the method: as §1

HOP-92 = test: NCI screen, growth of human tumor cells: Non-Small Cell Lung HOP-92
Summary of the method: as §1

K562 = test: NCI screen, growth of human tumor cells: Leukemia K562; conditions: K562 (Leukemia), 10^−4 molar
Summary of the method: as §1

M14 = test: NCI screen, growth of human tumor cells: Melanoma M14; conditions: M14 (Melanoma), 10^−4 molar
Summary of the method: as §1

MOLT-4 = test: NCI screen, growth of human tumor cells: Leukemia MOLT-4; conditions: MOLT-4 (Leukemia), 10^−4 molar
Summary of the method: as §1

NCI-H23 = test: NCI screen, growth of human tumor cells: Non-Small Cell Lung NCI-H23; conditions: NCI-H23 (Non-Small Cell Lung), 10^−4 molar
Summary of the method: as §1

UACC-257 = test: NCI screen, growth of human tumor cells: Melanoma UACC-257; conditions: UACC-257 (Melanoma), 10^−4 molar
Summary of the method: as §1

MCF7/ADR-RES = test: NCI screen, growth of human tumor cells: Breast Cancer MCF7/ADR-RES; conditions: MCF7/ADR-RES (Breast Cancer), 10^−4 molar
Summary of the method: as §1

786-0 = test: NCI screen, growth of human tumor cells: Renal Cancer 786-0; conditions: 786-0 (Renal Cancer), 10^−4 molar
Summary of the method: as §1

SU-DAL-7 = test: NCI screen, growth of human tumor cells: Lymphoma SU-DAL-7
HCT-15 = test: NCI screen, growth of human tumor cells: Colon Cancer HCT-15; conditions: HCT-15 (Colon Cancer), 10^−4 molar
Summary of the method: as §1

SK-MEL-5 = test: NCI screen, growth of human tumor cells: Melanoma SK-MEL-5; conditions: SK-MEL-5 (Melanoma), 10^−4 molar
Summary of the method: as §1

MCF 7 = test: NCI screen, growth of human tumor cells: Breast Cancer MCF 7; conditions: MCF 7 (Breast Cancer), 10^−4 molar
Summary of the method: as §1

SR = test: NCI screen, growth of human tumor cells: Leukemia SR; conditions: SR (Leukemia), 10^−4 molar
Summary of the method: as §1

LOXIMVI = test: NCI screen, growth of human tumor cells: Melanoma LOXIMVI; conditions: LOXIMVI (Melanoma), 10^−4 molar
Summary of the method: as §1

Structure (SMILES): O=S1(=O)OCCOS(=O)(=O)C1Cc1nc2ccccc2[nH]1 [NSC 679042, ethylene 2-benzimidazolyl-1,1-ethanedisulfonate]
- percent of growth of human tumor cells (HCT-116): −31%
- % Growth (KD488; KD488, 10^−4 molar): −39%
- % Growth (KD488; KD488, 10^−5 molar): 39%
- percent of growth of human tumor cells (RPMI-8226): −42%
- percent of growth of human tumor cells (CAKI-1): −2%
- percent of growth of human tumor cells (MDA-MB-435): 23%
- percent of growth of human tumor cells (MDA-MB-231/ATCC): 30%
- Percentage of cancers showing negative growth cancers tested (human cancer cells): 10^−4 M conc. = 12/32 = 38%
- % Growth (PA682; PA682, 10^−4 molar): −34%
- % Growth (PA682; PA682, 10^−5 molar): 18%
- percent of growth of human tumor cells (NCI-H460): 14%
- percent of growth of human tumor cells (MDA-N): 3%
- percent of growth of human tumor cells (CCRF-CEM): 15%
- percent of growth of human tumor cells (SN12C): 8%
- percent of growth of human tumor cells (OVCAR-8): −33%
- % Growth (HOP-18; HOP-18, 10^−4 molar): 18%
- % Growth (HOP-18; HOP-18, 10^−5 molar): 41%
- % Growth (HOP-18; HOP-18, 10^−6 molar): 29%
- % Growth (HOP-18; HOP-18, 10^−7 molar): 51%
- % Growth (HOP-18; HOP-18, 10^−8 molar): 58%
- % Growth (AS283; AS283, 10^−4 molar): −25%
- % Growth (AS283; AS283, 10^−5 molar): 15%
- % Growth (AS283; AS283, 10^−6 molar): 58%
- % Growth (AS283; AS283, 10^−7 molar): 54%
- % Growth (RL; 10^−4 molar): −45%
- % Growth (RL; 10^−5 molar): 41%
- percent of growth of human tumor cells (SF-295): 0%
- percent of growth of human tumor cells (U-251): 21%
- percent of growth of human tumor cells (HOP-62): 9%
- % Growth (HOP-92; HOP-92, 10^−4 molar): 18%
- % Growth (HOP-92; HOP-92, 10^−5 molar): 41%
- % Growth (HOP-92; HOP-92, 10^−6 molar): 29%
- % Growth (HOP-92; HOP-92, 10^−7 molar): 51%
- % Growth (HOP-92; HOP-92, 10^−8 molar): 56%
- percent of growth of human tumor cells (K562): 14%
- percent of growth of human tumor cells (M14): 23%
- percent of growth of human tumor cells (MOLT-4): −3%
- percent of growth of human tumor cells (NCI-H23): 16%
- percent of growth of human tumor cells (UACC-257): 12%
- percent of growth of human tumor cells (MCF7/ADR-RES): 15%
- percent of growth of human tumor cells (786-0): 22%
- % Growth (SU-DAL-7; SU-DAL-7, 10^−4 molar): −42%
- % Growth (SU-DAL-7; SU-DAL-7, 10^−5 molar): 29%
- % Growth (SU-DAL-7; SU-DAL-7, 10^−6 molar): 57%
- percent of growth of human tumor cells (HCT-15): 4%
- percent of growth of human tumor cells (SK-MEL-5): −28%
- percent of growth of human tumor cells (MCF 7): 6%
- percent of growth of human tumor cells (SR): 12%
- percent of growth of human tumor cells (LOXIMVI): −50%
